Reference: article PMC9061999, “Application of the Adverse Outcome Pathway Concept to In Vitro Nephrotoxicity Assessment: Kidney Injury due to Receptor-Mediated Endocytosis and Lysosomal Overload as a Case Study” (Frontiers in Toxicology, 2022)

Tested on: NRK-52E cells
Assay: LC-MS/MS analysis of intracellular concentration
Type: in vitro ADME, rat
Conditions: for Intracellular accumulation in NRK-52E compared to RPTEC-TERT1 cells: 24 h; for Intracellular concentration after recovery compared to the 24 h time-point: 34 µM for 24 h, then 24 h in fresh medium; for Time course of intracellular concentration: within the 24 h treatment period (1-2 min, 1, 3, 6, 24 h), n = 3
Experimental: NRK-52E and RPTEC/TERT1 cells were seeded in 12-well plates (120,000 cells per well) and were allowed to grow for 48 h (NRK-52E) or 10 d (RPTEC/TERT1) until they reached 100% confluence. After cells achieved 100% confluence, the supernatant was aspirated, and the cells were washed twice with 1 x PBS. Cells were treated with polymyxins at a final concentration of 34 µM for 24 h. Samples were taken at five different treatment time points (1–2 min, 1, 3, 6, and 24 h). In addition, a recovery sample was taken 24 h after the end of the 24 h treatment period. To this end, the supernatant was aspirated after 24 h treatment and the cells were washed three times with 1 x PBS to remove polymyxin B or colistin residues. Fresh growth medium was added, and the cells were incubated for another 24 h. At the end of each experiment, the cells were washed 3 times with 1 x PBS and trypsinized by adding 200 µL of trypsin. Detached cells were washed with 1,000 µL 1 x PBS and the cells were transferred to LoBind™ tubes (Eppendorf). Cell count was determined using a Fuchs-Rosenthal counting chamber (Hartenstein). Cells were centrifuged for 5 min at 4°C at 10.000 rpm and the supernatant was aspirated. Cells were resuspended in 1,000 µL 1 x PBS and centrifuged for 5 min at 4°C at 10.000 rpm. After centrifugation, the supernatant was aspirated, and the cell pellet was resuspended in 250 µL ammonium acetate buffer (10 mM) and 250 µL of 30% methanol with 1% acetic acid containing polymyxin B respectively colistin as an internal standard. Cells were sonicated for 10 min and centrifuged for 5 min at 4°C at 14.000 rpm. The supernatant was transferred quantitatively into new LoBind™ tubes (Eppendorf) and dried in a centrifugal vacuum concentrator for 2–3 h. To measure compound plastic binding, the empty 12 well plates were washed with 1.5 ml acetonitrile on an orbital shaker for 2 h and supernatant was collected. For sample purification via solid phase extraction, SPE cartridges Strata-X 33 µm polymeric reversed phase, 10 mg/1 ml (Phenomenex) were used. In the conditioning step the cartridges were rinsed with 200 µL methanol (100%) and subsequently with 200 µL ddH2O to activate the sorbent bed. The dried samples were dissolved in 200 µL 1% acetic acid and transferred onto the SPE cartridge. The SPE cartridge were rinsed once with 200 µL 1% acetic acid. Impurities were removed by rinsing the cartridge once with 200 µL 10% methanol. A fresh LoBind™ tube (Eppendorf) was placed under the SPE cartridge to eluate the samples by rinsing twice with 200 µL 90% methanol containing 1% acetic acid. The samples were dried in a centrifugal vacuum concentrator for 2–3 h. All samples were stored at −20°C until LC-MS/MS analysis.
A triple quadrupole mass spectrometer equipped with a Turbo-Ion® Spray source (QTrap API 2000; AB Sciex Instruments) was used for analyses. The mass spectrometer was coupled to an Agilent 1100 HPLC system consisting of a binary pump system, a vacuum degasser and an autosampler (Agilent 1,100). Chromatographic separation was performed at 40°C with a column oven (Knauer) on a Synergi Hydro-RP column (2 mm × 150 mm, 4 μm, 80 Å; Phenomenex) coupled to a precolumn (SecurityGuard™ Cartridges, AQ C18 4 × 2.0 mm) using a binary step gradient at a flow rate of 0.2 ml/min with the following gradient: 0 min 100% A, 15 min 0% A, 20 min 0% A, 21 min 100% A, and 30 min 100% A. Mobile phase consisted of 3% acetonitrile containing 1% acetic acid and (solvent A) and 97% acetonitrile containing 1% acetic acid (solvent B). The injection volume was set to 10 µL and the total analysis time was 30 min. Following chromatographic separation, multiple ion monitoring was used to detect the triply charged, twice charged, and single charged ions of polymyxins (Table 1). […]

Substance: Colistin
- Intracellular accumulation in NRK-52E compared to RPTEC-TERT1 cells (34 µM): significantly lower in NRK-52E cells
- Intracellular concentration compared to polymyxin B (NRK-52E, 34 µM): lower intracellular concentrations
- Intracellular concentration after recovery compared to the 24 h time-point (NRK-52E): declined during the 24 h off-dose recovery period
- Time course of intracellular concentration (NRK-52E, 34 µM): continuous rise in the intracellular concentration

Substance: Polymyxin B
- Intracellular accumulation in NRK-52E compared to RPTEC-TERT1 cells (34 µM): significantly lower in NRK-52E cells
- Intracellular concentration after recovery compared to the 24 h time-point (NRK-52E): declined during the 24 h off-dose recovery period
- Time course of intracellular concentration (NRK-52E, 34 µM): continuous rise in the intracellular concentration
